Results reported in the supplement of paper PMC11061612.

Assays:
Test in all cases: combination Emax (second highest fraction inhibited in the dose matrix, 72 h); higher = more inhibition; extreme values may be limits of the assay
[1] = system: BHT-101 (Thyroid Gland Carcinoma)
Outline: (§1)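 After 24 hours at 37°C and 5% CO2 in 1536-well plates, cells in DMEM/F12 or RPMI plus 10% FBS received two-drug dose matrices for 72 hours. Viability came from CellTiter-Glo 2.0 luminescence and was scaled as inhibition, anchored at 0 by vehicle wells and at 1 by blank wells. Combination Emax is taken as the second-highest inhibition in the matrix, and Bliss excess as the observed combination effect less EA + EB − EA·EB, with EA and EB the single-agent effects.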

[2] = system: BxPC-3 (Pancreatic Carcinoma)
Outline: as §1

[3] = system: C-33-A (Cervical Carcinoma)
Outline: as §1

[4] = system: HT-1080 (Other Solid Carcinomas)
Outline: as §1

[5] = system: IST-MEL1 (Melanoma)
Outline: as §1

[6] = system: KALS-1 (Glioblastoma)
Outline: as §1

[7] = system: LS-1034 (Colorectal Carcinoma)
Outline: as §1

[8] = system: MOLP-8 (Plasma Cell Myeloma)
Outline: as §1

[9] = system: MONO-MAC-6 (Acute Myeloid Leukemia)
Outline: as §1

[10] = system: OVCAR-3 (Ovarian Carcinoma)
Outline: as §1

[11] = system: SK-N-SH (Neuroblastoma)
Outline: as §1

[12] = system: SKG-IIIa (Cervical Carcinoma)
Outline: as §1

[13] = system: WM35 (Melanoma)
Outline: as §1

[14] = system: ZR-75-30 (Breast Carcinoma)
Outline: as §1

SMILES | combination Emax [1] | combination Emax [2] | combination Emax [3] | combination Emax [4] | combination Emax [5] | combination Emax [6] | combination Emax [7] | combination Emax [8] | combination Emax [9] | combination Emax [10] | combination Emax [11] | combination Emax [12] | combination Emax [13] | combination Emax [14]
CN(C)CCCOc1ccc(-c2ccc3ncc4c(c3c2)n(C2CCOCC2)c(=O)n4C)cn1 [AZD0156] + C=CCn1c(=O)c2cnc(Nc3ccc(N4CCN(C)CC4)cc3)nc2n1-c1cccc(C(C)(C)O)n1 [AZD1775] (first compound max 1 µM, partner max 1 µM) | 0.423 | 0.457 | 0.894 | 0.331 | 0.551 | 0.855 | 0.289 | 0.721 | 0.886 | 0.32 | 0.799 | 0.203 | 0.348 | 0.156
CN(C)CCCOc1ccc(-c2ccc3ncc4c(c3c2)n(C2CCOCC2)c(=O)n4C)cn1 [AZD0156] + CCN(CCO)CCCOc1ccc2c(Nc3cc(CC(=O)Nc4cccc(F)c4)[nH]n3)ncnc2c1 [AZD2811] (first compound max 1 µM, 7x7, partner max 1 µM) | 0.203 | 0.101 | 0.0887 | 0.142 | 0.231 | 0.214 | 0.108 | 0.603 | 0.743 | 0.105 | 0.479 | 0.0993 | 0.119 | 0.135
CN(C)CCCOc1ccc(-c2ccc3ncc4c(c3c2)n(C2CCOCC2)c(=O)n4C)cn1 [AZD0156] + C[C@@H]1COCCN1C2=NC(=NC(=C2)C3(CC3)[S@](=N)(=O)C)C4=C5C=CNC5=NC=C4 [AZD6738] (first compound max 1 µM, 7x7, partner max 10 µM) | 0.627 | 0.475 | 0.886 | 0.507 | 0.745 | 0.868 | 0.615 | 0.848 | 0.858 | 0.271 | 0.87 | 0.233 | 0.771 | 0.189
C=CCn1c(=O)c2cnc(Nc3ccc(N4CCN(C)CC4)cc3)nc2n1-c1cccc(C(C)(C)O)n1 [AZD1775] + C[C@@H]1COCCN1C2=NC(=NC(=C2)C3(CC3)[S@](=N)(=O)C)C4=C5C=CNC5=NC=C4 [AZD6738] (first compound max 1 µM, partner max 10 µM) | 0.771 | 0.624 | 0.978 | 0.476 | 0.797 | 0.923 | 0.763 | 0.854 | 1 | 0.74 | 0.953 | 0.586 | 0.659 | 0.296
C=CCn1c(=O)c2cnc(Nc3ccc(N4CCN(C)CC4)cc3)nc2n1-c1cccc(C(C)(C)O)n1 [AZD1775] + O=C(c1cc(Cc2n[nH]c(=O)c3ccccc23)ccc1F)N1CCN(C(=O)C2CC2)CC1 [Olaparib] (first compound max 1 µM, partner max 10 µM) | 0.406 | 0.511 | 0.914 | 0.354 | 0.49 | 0.896 | 0.372 | 0.754 | 0.942 | 0.532 | 0.882 | 0.369 | 0.303 | 0.213
CCN(CCO)CCCOc1ccc2c(Nc3cc(CC(=O)Nc4cccc(F)c4)[nH]n3)ncnc2c1 [AZD2811] + C=CCn1c(=O)c2cnc(Nc3ccc(N4CCN(C)CC4)cc3)nc2n1-c1cccc(C(C)(C)O)n1 [AZD1775] (first compound max 1 µM, partner max 1 µM) | 0.318 | 0.449 | 0.882 | 0.331 | 0.504 | 0.841 | 0.257 | 0.76 | 0.958 | 0.262 | 0.787 | 0.261 | 0.197 | 0.155
CCN(CCO)CCCOc1ccc2c(Nc3cc(CC(=O)Nc4cccc(F)c4)[nH]n3)ncnc2c1 [AZD2811] + C[C@@H]1COCCN1C2=NC(=NC(=C2)C3(CC3)[S@](=N)(=O)C)C4=C5C=CNC5=NC=C4 [AZD6738] (first compound max 1 µM, 7x7, partner max 10 µM) | 0.555 | 0.447 | 0.87 | 0.336 | 0.731 | 0.828 | 0.64 | 0.791 | 0.908 | 0.221 | 0.906 | 0.326 | 0.575 | 0.18
CCN(CCO)CCCOc1ccc2c(Nc3cc(CC(=O)Nc4cccc(F)c4)[nH]n3)ncnc2c1 [AZD2811] + O=C(c1cc(Cc2n[nH]c(=O)c3ccccc23)ccc1F)N1CCN(C(=O)C2CC2)CC1 [Olaparib] (first compound max 1 µM, 7x7, partner max 10 µM) | 0.201 | 0.244 | 0.289 | 0.215 | 0.259 | 0.296 | 0.192 | 0.434 | 0.783 | 0.147 | 0.479 | 0.147 | 0.179 | 0.185
CN(CCO)CC[C@H](CSc1ccccc1)Nc1ccc(S(=O)(=O)NC(=O)c2ccc(N3CCC([C@@H](O)c4ccccc4-c4ccc(Cl)cc4)CC3)cc2)cc1S(=O)(=O)C(F)(F)F [AZD4320] + C1CN(CCC1(C(=O)N[C@@H](CCO)C2=CC=C(C=C2)Cl)N)C3=NC=NC4=C3C=CN4 [Capivasertib] (first compound max 1 µM, 7x7, partner max 3 µM) | 0.351 | 0.0788 | 0.518 | 0.5 | 0.26 | 0.485 | 0.275 | 0.254 | 0.597 | 0.147 | 0.707 | 0.131 | 0.215 | 0.307
CN(CCO)CC[C@H](CSc1ccccc1)Nc1ccc(S(=O)(=O)NC(=O)c2ccc(N3CCC([C@@H](O)c4ccccc4-c4ccc(Cl)cc4)CC3)cc2)cc1S(=O)(=O)C(F)(F)F [AZD4320] + C=CCn1c(=O)c2cnc(Nc3ccc(N4CCN(C)CC4)cc3)nc2n1-c1cccc(C(C)(C)O)n1 [AZD1775] (first compound max 1 µM, partner max 1 µM) | 0.659 | 0.776 | 0.953 | 0.718 | 0.85 | 0.975 | 0.371 | 0.831 | 0.88 | 0.828 | 0.934 | 0.426 | 0.331 | 0.173
CN(CCO)CC[C@H](CSc1ccccc1)Nc1ccc(S(=O)(=O)NC(=O)c2ccc(N3CCC([C@@H](O)c4ccccc4-c4ccc(Cl)cc4)CC3)cc2)cc1S(=O)(=O)C(F)(F)F [AZD4320] + CCN(CCO)CCCOc1ccc2c(Nc3cc(CC(=O)Nc4cccc(F)c4)[nH]n3)ncnc2c1 [AZD2811] (first compound max 1 µM, 7x7, partner max 1 µM) | 0.279 | 0.236 | 0.151 | 0.594 | 0.407 | 0.508 | 0.251 | 0.418 | 0.959 | 0.234 | 0.761 | 0.191 | 0.136 | 0.173
CN(CCO)CC[C@H](CSc1ccccc1)Nc1ccc(S(=O)(=O)NC(=O)c2ccc(N3CCC([C@@H](O)c4ccccc4-c4ccc(Cl)cc4)CC3)cc2)cc1S(=O)(=O)C(F)(F)F [AZD4320] + CN(C)CCCOc1ccc(-c2ccc3ncc4c(c3c2)n(C2CCOCC2)c(=O)n4C)cn1 [AZD0156] (first compound max 1 µM, 7x7, partner max 1 µM) | 0.394 | 0.0513 | 0.126 | 0.549 | 0.249 | 0.227 | 0.347 | 0.315 | 0.422 | 0.132 | 0.641 | 0.109 | 0.152 | 0.169
COc1nnc2ccc(N3CCC(c4ccc(OCCN5CCN(C)C(=O)[C@H]5C)cc4)CC3)nn12 [AZD5153] + CN(CC[C@H](CSC1=CC=CC=C1)NC2=C(C=C(C=C2)S(=O)(=O)NC(=O)C3=CC=C(C=C3)N4CCC(CC4)[C@H](C5=CC=CC=C5C6=CC=C(C=C6)Cl)O)S(=O)(=O)C(F)(F)F)CCO [AZD4320] (first compound max 1 µM, 7x7, partner max 1 µM) | 0.737 |  |  | 0.618 |  |  |  | 0.98 |  | 0.601 |  |  | 0.718 | 
CC(=O)c1c(C)c2cnc(Nc3ccc(N4CCNCC4)cn3)nc2n(C2CCCC2)c1=O [Palbociclib] + CN(CC[C@H](CSC1=CC=CC=C1)NC2=C(C=C(C=C2)S(=O)(=O)NC(=O)C3=CC=C(C=C3)N4CCC(CC4)[C@H](C5=CC=CC=C5C6=CC=C(C=C6)Cl)O)S(=O)(=O)C(F)(F)F)CCO [AZD4320] (first compound max 10 µM, 7x7, partner max 1 µM) | 0.598 |  |  | 0.415 |  |  |  | 0.542 |  | 0.204 |  |  | 0.229 | 
CCc1c2c(nc3ccc(O)cc13)-c1cc3c(c(=O)n1C2)COC(=O)[C@]3(O)CC [SN-38] + O=C(c1cc(Cc2n[nH]c(=O)c3ccccc23)ccc1F)N1CCN(C(=O)C2CC2)CC1 [Olaparib] (first compound max 0.3 µM, 7x7, partner max 10 µM) |  | 0.59 | 0.747 | 0.489 | 0.897 | 0.616 | 0.553 | 0.783 | 1 | 0.687 | 0.959 | 0.389 | 0.448 | 0.348
C[C@@H](c1ccc2nccn2c1)n1nnc2ncc(-c3cnn(C)c3)nc21 [Savolitinib] + CN(CC[C@H](CSC1=CC=CC=C1)NC2=C(C=C(C=C2)S(=O)(=O)NC(=O)C3=CC=C(C=C3)N4CCC(CC4)[C@H](C5=CC=CC=C5C6=CC=C(C=C6)Cl)O)S(=O)(=O)C(F)(F)F)CCO [AZD4320] (first compound max 1 µM, 7x7, partner max 1 µM) | 0.176 |  |  | 0.566 |  |  |  | 0.216 |  | 0.131 |  |  | 0.251 | 
